Results reported in patent US20170189429A1, “Treating Arrhythmia with Mitochondrial-Targeted Antioxidants” (Rhode Island Hospital, priority 2014, published 2017).

Columns and labels:
[1] = system: cardiac Na+ channel (Nav1.5); assay: Whole-cell patch clamp recording of Na+ currents (INa) in cardiomyocytes isolated from MI mice treated with antioxidant; assay type: in vivo, mouse
Description: (§1) The following materials and methods were used to generate the data described herein. MI was induced in 12-week old C57BL/6 mice by coronary artery occlusion. Sham-operated mice were used as controls. Two weeks following surgery, MI mice were either given a mitochondria-targeted antioxidant, mitoTEMPO (0.7 mg/kg/day, intraperitoneally), or left untreated for two weeks. Cardiomyocytes isolated from the scar border of MI mice or from the left ventricular (LV) anterior wall of sham-operated mice were utilized for whole-cell patch clamp recording of Na^+currents (INa) and for measurements of mitochondrial reactive oxygen species (mitoROS) using flow cytometry. Nav1.5 protein expression levels were determined in the LV from MI and sham-operated mice. Echocardiography was performed 2- and 4-weeks following MI. Oxidized nicotinamide adenine dinculeotide used for experiments was purchased from Sigma-Aldrich, catalog number N1636 “β-Nicotinamide adenine dinucleotide hydrate, ≧99%, Synonyms: NAD^+, β-DPN, β-NAD, Coenzyme 1, Cozymase, DPN, Diphosphopyridine nucleotide, NAD, Nadide” and dissolved in water. MitoQ was used at 10 nM.
MI was induced in 12-week old C57BL/6 mice by coronary artery occlusion. Sham-operated mice were used as controls. […]
Whole cell INa were measured using the whole-cell patch clamp technique in voltage-clamp mode at room temperature.

[2] = system: mitochondrial reactive oxygen species (mitoROS); assay: mitoROS by flow cytometry (MitoSOX Red) in cardiomyocytes of treated MI mice; assay type: in vivo, mouse
Description: The following materials and methods were used to generate the data described herein. MI was induced in 12-week old C57BL/6 mice by coronary artery occlusion. Sham-operated mice were used as controls. Two weeks following surgery, MI mice were either given a mitochondria-targeted antioxidant, mitoTEMPO (0.7 mg/kg/day, intraperitoneally), or left untreated for two weeks. Cardiomyocytes isolated from the scar border of MI mice or from the left ventricular (LV) anterior wall of sham-operated mice were utilized for whole-cell patch clamp recording of Na^+currents (INa) and for measurements of mitochondrial reactive oxygen species (mitoROS) using flow cytometry. Nav1.5 protein expression levels were determined in the LV from MI and sham-operated mice. Echocardiography was performed 2- and 4-weeks following MI. […]
A BD LSR II (BD Biosciences) flow cytometer was used for high-throughput evaluation of mitoROS, mitochondrial volume, and cell survival. […] Separate suspensions were stained with propidium iodide (10 μg/mL) and evaluated at 617 nm to measure for cell integrity. Five thousand gated cells were recorded in each sample. […]

Connexin 43 = Connexin 43 protein level expression in heart tissue of MI mice; assay type: in vivo, mouse
From the text: FIG. 5A is a blot showing Connexin 43 protein level expressions and Glyceraldehyde 3-phosphate dehydrogenase (GAPDH) protein level expressions in heart tissue of Sham, MI mice and MI mice treated with mitoTEMPO (MI tx MT).
FIG. 5B is a bar graph showing Connexin 43/GAPDH protein expression in Sham, MI mice and MI mice treated with mitoTEMPO (MI tx MT).
MI was induced in 12-week old C57BL/6 mice by coronary artery occlusion. Sham-operated mice were used as controls. Two weeks after surgery, MI mice were either given a mitochondria-targeted antioxidant, mitoTEMPO (0.7 mg/kg/day, intraperitoneally), or left untreated for two weeks (Rutledge C A et al. J Am Coll Cardiol 2014; 63:928-934).

[3] = Echocardiography 2 and 4 weeks following MI; assay type: in vivo, mouse; details: MI mice
Description: as §1

[4] = system: SCN5A: sodium channel, voltage gated type V alpha subunit; assay: INa in SCN5A cells treated with NADH; assay type: cell-based
Description: FIG. 1A is a graph showing a series of sodium current traces measuring a INa reduction induced by NADH (nicotinamide adenine dinucleotide) (SCN5A+100 μM [NADH]) compared to normal INa (SCN5A), which can be restored by mitoTEMPO (SCN5A+100 μM [NADH]+5 μM [mitoTEMPO]). SCN5A: sodium channel, voltage gated type V alpha subunit
FIG. 1B is a bar graph showing INa reduction induced by NADH (SCN5A+100 μM [NADH]) compared to normal INa (SCN5A), which can be restored by mitoTEMPO (SCN5A+100 μM [NADH]+5 μM [mitoTEMPO]), which is also compared to mitoTEMPO (5 μM [mitoTEMPO]).
The SCNSA group is the untreated cells group, and the others were treated with 100 μmol/L NADH in the absence or presence of NAD from 50 to 1000 μmol/L.
The SCN5A group is the untreated cells group, and the others were treated with 100 μmol/L NADH in the absence or presence of NAD from 50 to 1000 μmol/L.

[5] = system: sodium channel current (INa); assay: Patch clamp peak INa in adult mouse cardiomyocytes treated with antimycin A; assay type: cell-based
Description: FIG. 9A is a bar graph showing that MitoQ restored INa that was decreased by antimycin A. The peak INa at −30 mV in adult mouse cardiomyocytes was decreased in antimycin A (5-10 μM) compared with SCNSA alone. Treatment using MitoQ at 10 nM with a 1-2 hour preincubation time restored INa. The SCNSA group is the untreated group. For patch clamp, MitoQ and antimycin A were also applied to the patch clamp bath solution during the entire time of patching, respectively or together. INa was measured at room temperature. Data shown in FIGS. 9A and 9B were obtained from 3 different mice, and 16-28 cells were used on average in each group.
In addition to MitoTEMP and NAD^+, another mitochondrial-targeted antioxidant, MitoQ, was tested. […] is an antibiotic that induces apoptosis and inhibits the mitochondrial electron transport chain, thereby inducing oxidative stress and generating reactive oxygen species. Because antimycin A is known to generate ROS (for example, increasing superoxide formation), it decreases the sodium channel current (INa). Additionally, antiomycin A causes damage to mitochondrial DNA, lipids, and proteins in cells treated with the antibiotic. […] Mitochondrial ROS production in response to increased antimycin A levels was monitored by MitoSox Red with SCNSA cells and myocytes (FIGS. 9A and 9B). […]

ROS = ROS density by MitoSox dye in adult mouse cardiomyocytes treated with antimycin A; assay type: cell-based; details: MitoQ 1-2 hours pretreatment, 10 nM
Description: FIG. 9B is a bar graph showing that Mito Q decreased ROS that was generated by antimycin A. ROS density in adult mouse cardiomyocytes was measured using MitoSox dye. Adult mouse cardiomyocytes were isolated, and MitoQ was applied for 1-2 hours pretreatment.
In addition to MitoTEMP and NAD^+, another mitochondrial-targeted antioxidant, MitoQ, was tested. […] is an antibiotic that induces apoptosis and inhibits the mitochondrial electron transport chain, thereby inducing oxidative stress and generating reactive oxygen species. Because antimycin A is known to generate ROS (for example, increasing superoxide formation), it decreases the sodium channel current (INa). Additionally, antiomycin A causes damage to mitochondrial DNA, lipids, and proteins in cells treated with the antibiotic. MitoSOX Red is a fluorescent mitochondrial probe used to measure ROS production. Mitochondrial ROS production in response to increased antimycin A levels was monitored by MitoSox Red with SCNSA cells and myocytes (FIGS. 9A and 9B).
Isolated adult mouse cardiomyocytes were pretreated with MitoQ.

mitochondrial ROS [6] = assay: Mitochondrial ROS by MitoSox Red confocal microscopy in PL-treated cells and DOCA myocytes; assay type: cell-based, mouse
Description: FIG. 6A is a photo showing representative confocal microscopy images of myocytes of 3 groups. Scale bar, 10 μm. Mitochondrial ROS production in response to intracellular NADH was monitored by MitoSox Red with SCNSA cells and myocytes. The control groups were untreated, the pyruvate and lactate (PL) groups were treated with 1 and 10 mmol/L PL buffer, respectively, for 10 minutes, and the NAD-PL groups were incubated with 500 μmol/L NAD^+ for ˜6 hours and then treated with PL buffer for 10 minutes.
FIG. 6C is a photo showing that mitochondrial ROS levels were increased in DOCA (deoxycorticosterone) myopathic mice and reduced by NAD treatment (500 μmol/L). Representative confocal microscopy images of mitochondrial ROS levels were obtained with treatment of myocytes monitored with MitoTracker Green and MitoSox Red. The white scale bar is 20 μm. […]
Mitochondrial ROS production in response to intracellular NADH was monitored by MitoSox Red with SCNSA cells and myocytes (FIGS. 6A and 6B). […]
Mitochondrial ROS levels were increased in DOCA myopathic mice and reduced by NAD^+ treatment (500 μmol/L) (FIG. 6C. Representative confocal microscopy images of mitochondrial ROS levels were obtained with treatment of myocytes monitored with MitoTracker Green and MitoSox Red. The white scale bar is 20 μm. The extremely red cells are dying myocytes that have very high levels of ROS.

cardiac INa = assay: Peak INa of DOCA mouse cardiomyocytes treated with NAD+; assay type: cell-based; details: 500 μmol/L
From the text: NAD^+ restored INa decreased by mitoROS in PL-treated cells and in DOCA myocytes.

mitochondrial ROS [7] = assay: Mitochondrial ROS by flow cytometry in DOCA mice injected with NAD+; assay type: in vivo, mouse; details: 100 mg/kg injected in the neck, P>0.05
Description: Three to four animals and ˜10,000 myocytes from each animal were tested in each group in flow cytometry (FIG. 8A).

INa = INa in cardiomyopathy of DOCA mice injected with NAD; assay type: in vivo, mouse; details: injection 100 mg/kg
Description: Reduced INa in cardiomyopathy of DOCA was corrected by injection of NAD (100 mg/kg), which had no effect on the sham group (FIG. 8B).

[8] = rodents treated 0.7 mg/kg/day intraperitoneally after ischemic insult

With `CC1(C)CC(NC(=O)C[P+](c2ccccc2)(c2ccccc2)c2ccccc2)CC(C)(C)N1[O]` [mitoTEMPO, (2-(2,2,6,6-Tetramethylpiperidin-1-oxyl-4-ylamino)-2-oxoethyl)triphenylphosphonium chloride monohydrate] the “peak INa density” value ([1]; MI mice, 0.7 mg/kg/day intraperitoneally for two weeks, isolated LV cardiomyocytes, sham −24.0±1.8, untreated MI −14.3±1.4) was −19.4±0.8 pA/pF, the “INa activity, effect in words” value [1, 8] was “statistically significant increase” and the mitoROS level ([2]; MI mice, 0.7 mg/kg/day intraperitoneally for two weeks, scar border cardiomyocytes, untreated MI 1.5±0.2 fold) was 1.2±0.2 fold. The “mitochondrial ROS, effect in words” value [2, 8] was “statistically significant decrease”, the “effect on connexin 43 downregulation in MI” value (Connexin 43; MI mice) was “no effect” and the “Connexin 43 level, of sham levels” value (Connexin 43; treated MI mice, untreated MI 56%, P<0.01 vs sham, ns vs MI) was 41%. For the same molecule, the “echocardiography parameters, untreated vs treated groups” value [3] was “no significant differences” and the “INa reduced by NADH, effect of antioxidant” value ([4]; SCN5A + 100 μM NADH + 5 μM mitoTEMPO) was “restored”.

With `COC1=C(OC)C(=O)C(CCCCCCCCCC[P+](c2ccccc2)(c2ccccc2)c2ccccc2)=C(C)C1=O` [MitoQ, 10-(6′-Ubiquinolyl)decylthriphenylphosphonium bromide] the “INa decreased by antimycin A, effect of antioxidant” value ([5]; 10 nM, 1-2 hour preincubation, antimycin A 5-10 μM, peak INa at −30 mV, room temperature) was “restored INa”, the “ROS (MitoSOX density) generated by antimycin A” value (ROS) was “elevated MitoSOX density” and the “ROS (MitoSOX density) generated by antimycin A” value (ROS; listed as Mito Q) was “decreased ROS”.

In the case of antimycin A, the “peak INa at −30 mV, effect of antimycin A” value ([5]; 5-10 μM, compared with SCN5A alone (untreated)) was “decreased”.

With `NC(=O)c1ccc[n+]([C@@H]2O[C@H](COP(=O)([O-])OP(=O)(O)OC[C@H]3O[C@@H](n4cnc5c(N)ncnc54)[C@H](O)[C@@H]3O)[C@@H](O)[C@H]2O)c1` [NAD^+, β-Nicotinamide adenine dinucleotide hydrate] the “inhibition of NADH on cardiac INa, effect of extracellular NAD” value ([4]; 100 μmol/L NADH, NAD from 50 to 1000 μmol/L) was “reversed the inhibition of NADH on cardiac INa in a dose-dependent manner”, the “mitochondrial ROS levels in DOCA myopathic mice myocytes” value (mitochondrial ROS [6]; 500 μmol/L) was “reduced” and the “MitoROS level increased by PL” value (mitochondrial ROS [6]; 500 μmol/L NAD+ for ~6 hours, then PL buffer 10 minutes) was “Decreased”. The “peak INa of DOCA mouse cardiomyocytes” value (cardiac INa) was “restored INa to the sham level”, the “mitochondrial ROS” value (mitochondrial ROS [7]) was 1.1±0.1 fold of sham and the “reduced INa in cardiomyopathy of DOCA” value (INa; DOCA mice) was “corrected”. For the same molecule, the “INa, effect on the sham group” value (INa; sham mice) was “no effect”.
